Assay results published in patent US8895599B2, “Lipoprotein lipase-activating compositions comprising benzene derivates” (Otsuka Pharmaceutical Factory, Inc., priority 2008, dated 2014).

Row | SMILES | melting point [°C]
1 | COc1cc(-c2cn3cc(Br)ccc3n2)ccc1OCc1ccccc1 [Example 66] | 175 to 176
2 | CCOc1cc(-c2cn3ccccc3n2)ccc1OCc1ccc(Cl)cc1 [Example 68] | 136 to 137
3 | COc1cc(-c2nc3ccccn3c2C)ccc1OCc1ccc(C)cc1 [Example 27] | 118 to 120
4 | COc1cc(-c2cn3cc(C)ccc3n2)ccc1OCc1ccc(Br)cc1 [Example 56] | 155 to 157
5 | COc1cc(-c2cn3ccccc3n2)ccc1OCc1c(F)cccc1F [Example 104] | 136 to 137
6 | COc1cc(-c2cn3cccc(C)c3n2)ccc1OCc1ccc(C#N)cc1 [Example 74] | 144 to 146
7 | COc1cc(-c2cn3ccsc3n2)ccc1OCc1ccccc1 [Example 24] | 130 to 132
8 | COc1cc(-c2nc3ccccn3c2Cl)ccc1OCc1ccc(Cl)cc1 [Example 19] | 139 to 140
9 | COc1cc(-c2cn3ccccc3n2)ccc1OCc1ccc(Br)cc1 [Example 31] | 136 to 137
10 | CCOc1cc(-c2cn3ccccc3n2)ccc1OCc1ccccc1 [Example 60] | 157 to 158

More lines, now with the values ahead:

Row | melting point [°C] | SMILES
11 | 164 to 166 | COc1cc(-c2cn3cccc(OCc4ccccc4)c3n2)ccc1OCc1ccc(Cl)cc1 [Example 75]
12 | 138 to 139 | COc1cc(-c2cn3ccccc3n2)ccc1OCc1ccc(Cl)cc1Cl [Example 92]
13 | 197 to 200 | COc1cc(-c2cn3ccccc3n2)ccc1OCc1ccc([N+](=O)[O-])cc1 [Example 38]
14 | 164 to 165 | COc1cc(-c2cn3cc(Br)cc(C)c3n2)ccc1OCc1ccccc1 [Example 98]
15 | 158 to 160 | COc1cc(-c2cn3cc(Br)c(C)c(C)c3n2)ccc1OCc1ccccc1 [Example 100]
16 | 154 to 155 | COc1cc(-c2cn3ccccc3n2)cc(OC)c1OCc1ccccc1 [Example 41]
17 | 114 to 115 | COc1cc(-c2nc3ccccn3c2C)ccc1OCc1ccc(Cl)cc1 [Example 26]
